From patent US10160948B2, “Pluripotent embryonic-like stem cells, compositions, methods and uses thereof” (ABT HOLDING COMPANY, priority 1999, dated 2018)

Key:
[1] = test system: progenitor stem cells; assay: Proliferation and phenotypic responses to bioactive factors: progenitor cells; format: cell-based
Source text: Having access to mixed populations of progenitor stem cells, progenitor stem cell clones, and pluripotent stem cell clones permits one to address the influence of various bioactive factors (e.g. recombinant growth factors, purified compounds, and novel inductive factors) on the growth characteristics and phenotypic expression of these stem cells.
Cryopreserved cells are thawed and plated in MSC-1 at 5, 10, or 20×10^3 cells per well of gelatinized 24-well plates following the standard protocol. Twenty-four hours after initial plating the medium is changed to testing medium (TM) 1 to 6 (TM-1, TM-2, TM-3, TM-4, TM-5, or TM-6). TM-1 to TM-4 consist of Ultraculture (cat. no. 12-725B, lot. nos. OMO455 [TM-1], 1M1724 [TM-2], 2M0420 [TM-3], or 2M0274 [TM-4], Bio-Whittaker, Walkersville, Md.), medium (EMEM or Opti-MEM 0.01 mM β-mercaptoethanol), and 1% (v/v) antibiotic-antimycotic, pH 7.4. TM-5 consists of 98% (v/v) medium, 1% (v/v) HS, and 1% (v/v) antibiotic-antimycotic, pH 7.4. TM-6 consists of 98.5% (v/v) medium, 0.5% (v/v) HS, and 1% (v/v) antibiotic-antimycotic, pH 7.4. […] Four testing media (TM#'s 1-4), each containing various concentrations of Ultraculture, were used as. […] The four Ultraculture-based testing media were: TM-1=15% (v/v) Ultraculture (Lot no. OMO455): 84% (v/v) medium: 1% (v/v) antibiotics; TM-2=15% (v/v) Ultraculture (Lot no. 1M1724): 84% (v/v) medium: 1% (v/v) antibiotics; TM-3=50% (v/v) Ultraculture (Lot no. 2M0420): 49% (v/v) medium: 1% (v/v) antibiotics; and TM-4=75% (v/v) Ultraculture (Lot no. 2M0274): 24% (v/v) medium: 1% (v/v) antibiotics. Pre-incubation for 24 hr in testing medium alone is used to wash out any potential synergistic components in the MSC-1 medium. Twenty-four hours later the testing medium is changed to one of the following. For controls, TM-1 to TM-6 alone is used. To identify clones of progenitor cells, the medium is replaced with TM-1 to TM-6 containing 2 μg/ml insulin (Sigma), an agent that accelerates the appearance of phenotypic expression markers in progenitor cells (TABLE 12). To identify clones of pluripotent cells, the medium is replaced with TM-1 to TM-6 containing 10^−10 to 10^−6 M dexamethasone (Sigma), a general non-specific lineage-inductive agent (TABLE 13). Control and treated cultures are propagated for an additional 30-45 days with medium changes every other day. Four culture wells are used per concentration per experiment. During the 0-45 day time period the cultures are examined subjectively for changes in morphological characteristics on a daily basis. Alterations in phenotypic expression are correlated with the days of treatment and associated insulin or dexamethasone concentrations. The experiment is then repeated utilizing these parameters to confirm objectively the phenotypic expression markers using established histological, functional/histochemical, ELICA/flow cytometry, and molecular assays (TABLE 13).

[2] = test system: phenotypic expression markers (ectodermal, mesodermal, endodermal, embryonic); assay: Immunochemical and histochemical phenotypic analysis of human cell lines incubated with serum + insulin (I) + dexamethasone (D); format: cell-based
Procedure: Additional immunochemical and histochemical studies were performed with a series of human cell lines. Human cells CF-NHDF2 (derived from person dermis) were propogated to various doubling numbers (cell doublings of between 12 and 47), and examined, as above, for multiple induced mesodermal, ectodermal, endodermal and embryonic lineages. Human cells CM-SkM2 and CF-SkM2, were similarly examined, after propogation to 12 cell doublings. TABLES 7-9 provides the results of examination of the human cells CF-NHDF2 at progressive cell doublings, under different growth conditions. TABLE 10 provides the results of examination of the human cells CM-SkM2, and CF-SkM2 at progressive cell doublings, under different growth conditions.
Phenotypic Analysis. The cryopreserved cells were thawed and seeded at 1×10^3 cells per well of 1% gelatinized 96-well plates (Corning, Corning, N.Y.).15,16 The cell lines were incubated with CM only (non-induced) or CM+insulin and/or dexamethasone in a comparison/contrast analysis system to ascertain induced phenotypic expression.7,15 In this assay, insulin accelerates phenotypic expression of lineage-committed progenitor cells but has no effect on the induction of lineage-commitment and subsequent phenotypic expression in pluripotent cells.
Cells were cultured for 30-56 days in CM, CM+[…] insulin, or CM+10^−6M Dexamethasone+/−insulin+1%, 5%, or 10% horse serum. […]

## insulin
[1]
  Proliferation, Progenitor: number of times the agent increased the DNA content per well versus its respective control: 2 times
[1]; presence and approximate distribution of differentiated phenotypes within the culture wells
  Phenotypic Expression, Progenitor: All+++
[2]
  effect on morphology and antigen staining of NHDF2 and PAL3 cells: No change in morphology or change in antigen staining
